The values below are quoted from earlier work in patent US8440668B2, “Beta-amino heterocyclic dipeptidyl peptidase inhibitors for the treatment of type 2 diabetes” (Merck Sharp & Dohme Corp, priority 2001, dated 2013).

One data set concerns rats. The conditions noted are these: Transplantation 63, 1495-1500 (1997).
A further data set deals with T1, DP-IV (Homo sapiens, UniProt P27487).
T1 construct: GRF is rapidly degraded in plasma to GRF[3-44]; from tissue

In another data set the test system is mouse. The following applies: cyclophosphamide-induced neutropenia, WO 99/56753.

T1 sequence (P27487 39-766 limits assumed): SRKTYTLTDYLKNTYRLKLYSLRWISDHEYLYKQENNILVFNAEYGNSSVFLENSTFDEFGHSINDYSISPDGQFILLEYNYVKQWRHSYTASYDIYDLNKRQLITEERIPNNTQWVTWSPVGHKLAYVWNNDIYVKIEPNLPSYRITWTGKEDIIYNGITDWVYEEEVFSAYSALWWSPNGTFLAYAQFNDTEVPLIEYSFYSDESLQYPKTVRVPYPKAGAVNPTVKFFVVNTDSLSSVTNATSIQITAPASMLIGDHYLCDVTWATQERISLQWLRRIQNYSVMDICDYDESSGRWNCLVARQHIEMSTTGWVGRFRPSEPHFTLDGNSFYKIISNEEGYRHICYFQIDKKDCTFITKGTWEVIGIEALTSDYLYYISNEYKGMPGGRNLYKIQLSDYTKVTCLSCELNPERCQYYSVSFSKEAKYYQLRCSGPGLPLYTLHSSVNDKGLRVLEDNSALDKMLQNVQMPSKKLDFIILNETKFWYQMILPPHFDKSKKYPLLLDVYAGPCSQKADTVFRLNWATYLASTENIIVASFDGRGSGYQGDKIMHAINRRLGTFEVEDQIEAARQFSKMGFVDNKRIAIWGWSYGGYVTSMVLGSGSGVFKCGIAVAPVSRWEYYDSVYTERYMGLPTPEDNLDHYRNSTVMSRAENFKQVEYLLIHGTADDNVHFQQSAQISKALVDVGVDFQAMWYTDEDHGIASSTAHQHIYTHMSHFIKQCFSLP

Regarding `CC(C)N1CCC(c2ccccc2)(c2ccccc2)CC1` [Prodipine, Pro-Pro-diphenyl-phosphonate], the cardiac allograft survival result in the data set with rats is on record as “double cardiac allograft survival in rats from day 7 to day 14”. With diprotin A, the “degradation of GRF in plasma to GRF[3-44]” value at DP-IV was “prevented”.

In the case of `CC(C)[C@H](N)C(=O)N1CCC[C@H]1B(O)O` [Val-Boro-Pro], the hematopoiesis result in the data set with mouse is given as “stimulated hematopoiesis”.
